From the supplement of paper PMC8967900

What follows are compounds tested on CCRF-HSB2 (assay: selective drug sensitivity score (sDSS, relative to normal bone marrow) (sDSS (score)); higher = more potent and effective on the cell line relative to normal bone marrow cells). Settings: 72 h.
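Also: ALL cell lines in 384-well plates, five doses spanning 10,000-fold, each plate scaled between vehicle and 100 µmol/L benzalkonium chloride controls, sDSS an adapted area-under-curve metric.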

| Structure (SMILES) | selective drug sensitivity score |
| --- | --- |
| C[C@H]1CNCCCN1S(=O)(=O)c1cccc2cncc(F)c12 [Ripasudil] (top concentration 10000 nM) | 1.58 |
| C[C@@H](Oc1cc(-c2cnn(C3CCNCC3)c2)cnc1N)c1c(Cl)ccc(F)c1Cl [Crizotinib] (top concentration 1000 nM) | 4.26 |
| CCN(CC)CCCC(C)Nc1ccnc2cc(Cl)ccc12 (stereo not given) [Chloroquine] (top concentration 100000 nM) | -2.34 |
| N#CC(c1ccnc(OCc2ccc(CN3CCOCC3)cc2)n1)c1nc2ccccc2s1 (stereo not given) [Bentamapimod] (top concentration 10000 nM) | 4.04 |
| COc1cc(N2CCC(N3CCN(C)CC3)CC2)ccc1Nc1ncnc(Nc2ccccc2S(=O)(=O)C(C)C)n1 [ASP3026] (top concentration 10000 nM) | 5.06 |
| COCCOc1cnc2ccn([C@H](C)c3nnc4c(F)cc(-c5cnn(C)c5)cn34)c(=O)c2c1 [AMG-337] (top concentration 10000 nM) | -0.06 |
| Cc1cnc(NC(=O)Nc2cc(Br)c(C)cc2OC[C@@H]2CNCCO2)cn1 [Rabusertib] (top concentration 1000 nM) | -0.74 |
| CNC(=O)c1ccc(-c2cnc3ncc(Cc4ccc5ncccc5c4)n3n2)cc1F [Capmatinib] (top concentration 1000 nM) | -0.06 |
| COc1cc2/c(=N/c3ccc(Br)cc3F)nc[nH]c2cc1OCC1CCN(C)CC1 [Vandetanib] (top concentration 1000 nM) | 11.6 |

Each compound was assayed on PF-382 in the same assay as above. Settings: 72 h.

| Structure (SMILES) | selective drug sensitivity score |
| --- | --- |
| Nc1ncnc2c1c(COc1cccc(Cl)c1)nn2C1CCOCC1 (top concentration 10000 nM) | -0.24 |
| CC1(C)CNc2cc(NC(=O)c3cccnc3NCc3ccncc3)ccc21 [Motesanib] (top concentration 10000 nM) | -0.22 |
| NC(=O)c1cccc(-c2cccc(OC(=O)NC3CCCCC3)c2)c1 [URB597] (top concentration 1000 nM) | -0.46 |
| CCCN(CCC)C(=O)C1=Cc2ccc(-c3ccc(C(=O)N4CCCC4)cc3)cc2N=C(N)C1 [Motolimod] (top concentration 10000 nM) | -2.28 |
| CCCOc1ccn2c(C(C)=O)cc(-c3ccccc3S(C)(=O)=O)c2c1 [GSK2801] (top concentration 10000 nM) | 0.54 |
| Nc1cc(COc2c(Cl)cc(C[C@H](N)C(=O)O)cc2Cl)c2oc(-c3ccccc3)nc2c1 [JPH203] (top concentration 5000 nM) | 0 |
| CC/C(=C(\c1ccccc1)c1ccc(OCCN(C)C)cc1)c1ccccc1 [Tamoxifen] (top concentration 10000 nM) | 1.72 |
| NC(=S)N/N=C/c1ncccc1N [Triapine] (top concentration 10000 nM) | 1.28 |
| C=CCN(/C=C1/C(=O)O[C@H](COC)[C@@]2(C)C1=C(O)C(=O)C1=C2[C@H](OC(C)=O)C[C@]2(C)C(=O)CC[C@@H]12)CC=C [Sonolisib] (top concentration 10000 nM) | -0.76 |
| C[C@H]1CNCCCN1S(=O)(=O)c1cccc2cncc(F)c12 [Ripasudil] (top concentration 10000 nM) | -0.22 |
| C[C@@H](Oc1cc(-c2cnn(C3CCNCC3)c2)cnc1N)c1c(Cl)ccc(F)c1Cl [Crizotinib] (top concentration 1000 nM) | -0.54 |
| CCN(CC)CCCC(C)Nc1ccnc2cc(Cl)ccc12 (stereo not given) [Chloroquine] (top concentration 100000 nM) | -2.34 |
| N#CC(c1ccnc(OCc2ccc(CN3CCOCC3)cc2)n1)c1nc2ccccc2s1 (stereo not given) [Bentamapimod] (top concentration 10000 nM) | 3.84 |
| COc1cc(N2CCC(N3CCN(C)CC3)CC2)ccc1Nc1ncnc(Nc2ccccc2S(=O)(=O)C(C)C)n1 [ASP3026] (top concentration 10000 nM) | -0.04 |
| COCCOc1cnc2ccn([C@H](C)c3nnc4c(F)cc(-c5cnn(C)c5)cn34)c(=O)c2c1 [AMG-337] (top concentration 10000 nM) | -0.06 |
| Cc1cnc(NC(=O)Nc2cc(Br)c(C)cc2OC[C@@H]2CNCCO2)cn1 [Rabusertib] (top concentration 1000 nM) | -0.64 |
| CNC(=O)c1ccc(-c2cnc3ncc(Cc4ccc5ncccc5c4)n3n2)cc1F [Capmatinib] (top concentration 1000 nM) | -0.06 |
| COc1cc2/c(=N/c3ccc(Br)cc3F)nc[nH]c2cc1OCC1CCN(C)CC1 [Vandetanib] (top concentration 1000 nM) | 0.48 |

These compounds were tested on COG-LL-317 in the same assay as above. Settings: 72 h.

| Structure (SMILES) | selective drug sensitivity score |
| --- | --- |
| Nc1ncnc2c1c(COc1cccc(Cl)c1)nn2C1CCOCC1 (top concentration 10000 nM) | -0.64 |
| CC1(C)CNc2cc(NC(=O)c3cccnc3NCc3ccncc3)ccc21 [Motesanib] (top concentration 10000 nM) | -0.22 |
| NC(=O)c1cccc(-c2cccc(OC(=O)NC3CCCCC3)c2)c1 [URB597] (top concentration 1000 nM) | -0.46 |
| CCCN(CCC)C(=O)C1=Cc2ccc(-c3ccc(C(=O)N4CCCC4)cc3)cc2N=C(N)C1 [Motolimod] (top concentration 10000 nM) | -4.08 |
| CCCOc1ccn2c(C(C)=O)cc(-c3ccccc3S(C)(=O)=O)c2c1 [GSK2801] (top concentration 10000 nM) | 0.84 |
| Nc1cc(COc2c(Cl)cc(C[C@H](N)C(=O)O)cc2Cl)c2oc(-c3ccccc3)nc2c1 [JPH203] (top concentration 5000 nM) | 0 |
| CC/C(=C(\c1ccccc1)c1ccc(OCCN(C)C)cc1)c1ccccc1 [Tamoxifen] (top concentration 10000 nM) | 1.42 |
| NC(=S)N/N=C/c1ncccc1N [Triapine] (top concentration 10000 nM) | 0.88 |
| C=CCN(/C=C1/C(=O)O[C@H](COC)[C@@]2(C)C1=C(O)C(=O)C1=C2[C@H](OC(C)=O)C[C@]2(C)C(=O)CC[C@@H]12)CC=C [Sonolisib] (top concentration 10000 nM) | -0.06 |
| C[C@H]1CNCCCN1S(=O)(=O)c1cccc2cncc(F)c12 [Ripasudil] (top concentration 10000 nM) | -0.22 |
| C[C@@H](Oc1cc(-c2cnn(C3CCNCC3)c2)cnc1N)c1c(Cl)ccc(F)c1Cl [Crizotinib] (top concentration 1000 nM) | -0.54 |
| CCN(CC)CCCC(C)Nc1ccnc2cc(Cl)ccc12 (stereo not given) [Chloroquine] (top concentration 100000 nM) | 0.36 |
| N#CC(c1ccnc(OCc2ccc(CN3CCOCC3)cc2)n1)c1nc2ccccc2s1 (stereo not given) [Bentamapimod] (top concentration 10000 nM) | 3.34 |
| COc1cc(N2CCC(N3CCN(C)CC3)CC2)ccc1Nc1ncnc(Nc2ccccc2S(=O)(=O)C(C)C)n1 [ASP3026] (top concentration 10000 nM) | -1.44 |
| COCCOc1cnc2ccn([C@H](C)c3nnc4c(F)cc(-c5cnn(C)c5)cn34)c(=O)c2c1 [AMG-337] (top concentration 10000 nM) | -0.06 |
| Cc1cnc(NC(=O)Nc2cc(Br)c(C)cc2OC[C@@H]2CNCCO2)cn1 [Rabusertib] (top concentration 1000 nM) | 7.36 |
| CNC(=O)c1ccc(-c2cnc3ncc(Cc4ccc5ncccc5c4)n3n2)cc1F [Capmatinib] (top concentration 1000 nM) | 0.34 |
| COc1cc2/c(=N/c3ccc(Br)cc3F)nc[nH]c2cc1OCC1CCN(C)CC1 [Vandetanib] (top concentration 1000 nM) | -0.22 |
